Test systems include OVCAR-5 ovarian; EKVX NSCLC; SN12C renal; HOP-92 NSCLC; MDA-MB-435; NCI-H522 lung; U251 CNS; MOLT-4 leukemia; PC-3 prostate; SF-295 CNS; HCT-116 colon; UO-31 renal; NCI/ADR-RES ovarian; SNB-19 CNS; MCF7 breast; HT29 colon; MDA-MB-231 breast; SW-620 colon.
Test in all cases: DTP human tumour cell line panel, 48 h

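Method: 48-hour compound exposure of cells in 96-well plates, five concentrations, linear interpolation of endpoints. TGI marks complete inhibition of growth.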

`C=C(C)[C@H]1CC[C@@]23O[C@@H]2[C@@H](C[C@@]2(C)CC(=O)[C@H](CC(=O)C1)O2)OC(=O)[C@@]12CC[C@H](C(=C)C)CC(=O)C[C@H]4O[C@](C)(CC4=O)C[C@@H](OC3=O)[C@@H]1O2`: the TGI in the experiment with OVCAR-5 ovarian, in the experiment with EKVX NSCLC, with SN12C renal, in the experiment on HOP-92 NSCLC, in the experiment with MDA-MB-435 and with NCI-H522 lung was more than 100 µM throughout. The TGI with U251 CNS, with MOLT-4 leukemia, with PC-3 prostate, in the experiment on SF-295 CNS, in the experiment with HCT-116 colon and in the experiment on UO-31 renal was more than 100 µM in each case. In addition, the TGI in the experiment on NCI/ADR-RES ovarian, with SNB-19 CNS, in the experiment on MCF7 breast, in the experiment on HT29 colon and in the experiment with MDA-MB-231 breast was more than 100 µM in each case.

Turning to `CC(O)CNC(=O)Nc1c(C(F)(F)F)cc(-c2ccccc2)[nH]c1=O` (stereo not given), the TGI with OVCAR-5 ovarian, in the experiment with SW-620 colon, in the experiment on EKVX NSCLC, with SN12C renal, in the experiment on HOP-92 NSCLC and in the experiment on MDA-MB-435 was more than 100 µM each time. In addition, the TGI with NCI-H522 lung, in the experiment on U251 CNS, in the experiment with MOLT-4 leukemia, in the experiment with PC-3 prostate, in the experiment on SF-295 CNS and with HCT-116 colon was more than 100 µM throughout. Further, the TGI in the experiment with UO-31 renal, in the experiment with NCI/ADR-RES ovarian, in the experiment on SNB-19 CNS, in the experiment with MCF7 breast, with HT29 colon and in the experiment on MDA-MB-231 breast was more than 100 µM each time.

`COC(=O)[C@@H]1C[C@@H](O)CN1C(=O)c1ccc([N+](=O)[O-])cc1[N+](=O)[O-]`: the TGI in the experiment with OVCAR-5 ovarian, with SW-620 colon, in the experiment on EKVX NSCLC, in the experiment with SN12C renal, with HOP-92 NSCLC and in the experiment on MDA-MB-435 was more than 100 µM in each case. The TGI in the experiment on NCI-H522 lung, in the experiment on U251 CNS, in the experiment with MOLT-4 leukemia, in the experiment with PC-3 prostate, with SF-295 CNS and with HCT-116 colon was more than 100 µM each time. The TGI in the experiment on UO-31 renal, in the experiment with NCI/ADR-RES ovarian, in the experiment on SNB-19 CNS, in the experiment with MCF7 breast, in the experiment on HT29 colon and with MDA-MB-231 breast was more than 100 µM in each case.

As to `CSC1=NN(C(C)=O)C(C(OC(C)=O)C(OC(C)=O)C(OC(C)=O)C(COC(C)=O)OC(C)=O)S1` (stereo not given), the TGI with OVCAR-5 ovarian, in the experiment with SW-620 colon, in the experiment with EKVX NSCLC, in the experiment with SN12C renal, in the experiment on HOP-92 NSCLC and in the experiment with MDA-MB-435 was more than 100 µM in each case. Also, the TGI in the experiment on NCI-H522 lung, in the experiment on U251 CNS, in the experiment with MOLT-4 leukemia, with PC-3 prostate, with SF-295 CNS and in the experiment on HCT-116 colon was more than 100 µM throughout. For the same molecule, the TGI in the experiment on UO-31 renal, in the experiment on NCI/ADR-RES ovarian, in the experiment with SNB-19 CNS, in the experiment with MCF7 breast, in the experiment with HT29 colon and in the experiment with MDA-MB-231 breast was more than 100 µM in each case.

Turning to `CN1CCC2(c3ccccc3)CC(=O)/C(=C/c3ccc(Cl)c(Cl)c3)C1C2` (stereo not given), the TGI in the experiment with OVCAR-5 ovarian was 6.37 µM; with SW-620 colon, more than 21.6 µM; in the experiment on EKVX NSCLC, 9.63 µM; in the experiment with SN12C renal it was 3.72 µM; in the experiment with HOP-92 NSCLC, 7.33 µM; with MDA-MB-435 it was 5.14 µM. For the same molecule, the concentration for total growth inhibition (TGI) with NCI-H522 lung was 3.6 µM; in the experiment with U251 CNS, 3.47 µM; with MOLT-4 leukemia it was 7.81 µM; in the experiment with PC-3 prostate, 4.52 µM; in the experiment with SF-295 CNS, 6.52 µM; with HCT-116 colon, more than 21 µM. In addition, the TGI with UO-31 renal came to 3.82 µM; in the experiment with NCI/ADR-RES ovarian it was 11 µM; in the experiment on SNB-19 CNS, 5.32 µM; with MCF7 breast it was 17.3 µM; in the experiment with HT29 colon, 4.12 µM; in the experiment with MDA-MB-231 breast, 3.21 µM.

For the molecule `CC(=O)NS(=O)(=O)c1ccc(NCc2cccc3c(=O)c4ccc(Cl)cc4oc23)cc1`, the TGI was more than 100 µM in the experiment on OVCAR-5 ovarian; more than 100 µM in the experiment on SW-620 colon; more than 100 µM with EKVX NSCLC; more than 100 µM in the experiment with SN12C renal; 69.7 µM in the experiment with HOP-92 NSCLC; more than 100 µM in the experiment on MDA-MB-435. Also, the TGI in the experiment with NCI-H522 lung was more than 83.8 µM; in the experiment with U251 CNS, more than 100 µM; in the experiment on MOLT-4 leukemia, more than 100 µM; with PC-3 prostate it was more than 86.2 µM; with SF-295 CNS, more than 100 µM; in the experiment on HCT-116 colon, more than 100 µM. Besides, the TGI is more than 100 µM in the experiment on UO-31 renal; more than 80.7 µM in the experiment with NCI/ADR-RES ovarian; more than 100 µM with SNB-19 CNS; more than 100 µM in the experiment on MCF7 breast; more than 100 µM with HT29 colon; more than 100 µM in the experiment on MDA-MB-231 breast.

Consider `COc1ccc(-c2sc(Br)c3c2C(=O)C2OC(=O)NC32)cc1OC` (stereo not given), for which the TGI in the experiment on OVCAR-5 ovarian, in the experiment on SW-620 colon, with EKVX NSCLC, in the experiment with SN12C renal, in the experiment with HOP-92 NSCLC and in the experiment on MDA-MB-435 was more than 100 µM throughout. In addition, the total growth inhibition concentration (TGI) in the experiment on NCI-H522 lung, with U251 CNS, in the experiment on MOLT-4 leukemia, in the experiment with PC-3 prostate, in the experiment with SF-295 CNS and in the experiment with HCT-116 colon was more than 100 µM each time. The TGI in the experiment on UO-31 renal, in the experiment with NCI/ADR-RES ovarian, in the experiment on SNB-19 CNS, in the experiment with MCF7 breast, with HT29 colon and with MDA-MB-231 breast was more than 100 µM each time.

Values taken from PubChem BioAssay (NCI).
